Test results as given in patent publication US11952365B2, “Anti-viral compounds” (Aligos Therapeutics, Inc., priority 2020, dated 2024).
Like-named read-outs stand apart in the source and are kept apart here.

Assays:
[1] = in vitro; conditions: African green monkey, VeroE6 + CP (CC50), Vero E6-eGFP cells with CP-100356, absence of virus, MTS
[2] = tested on: SARS-CoV-2-GHB-03021/2020; test: microbe, parasite or virus in culture; assay type: cell-based; conditions: Severe acute respiratory syndrome coronavirus 2, Vero C1008, 96 h; read-out: VeroE6 + CP (EC50)
[3] = tested on: SARS-CoV-2-GHB-03021/2020; test: SARS-CoV-2 Infection Model in Huh7 Cells; assay type: cell-based; conditions: Severe acute respiratory syndrome coronavirus 2, Huh-7, 96 h, SARS-CoV-2, day 4 p.i., MTS
[4] = biological target: T1, human cathepsin L (Homo sapiens, UniProt P07711); test: cathepsin L assay; assay type: biochemical; conditions: 10 pM human cathepsin L, Z-FR-AMC 2 μM, class symbols
T1 construct: purchased R&D Systems
Summary of the method: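 Human cathepsin L at 10 pM was preincubated 30 min with compound, then reaction started with Z-FR-AMC (2 μM final). Fluorescence (355/460 nm) read every 2 min for 30 min; IC50 from four-parameter curve fit.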

[5] = tested on: human beta-coronavirus OC43; test: microbe, parasite or virus in culture; assay type: cell-based; conditions: Betacoronavirus 1, OC43, HeLa, 144 h, OC43 in HeLa cells, 6 days at 33° C., read-out: EC50
[6] = Cytotoxicity plates without OC43 virus (cell-titer-glo); assay type: cell-based, human; conditions: human; HeLa cells without OC43 virus, class symbols
Summary of the method: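 HeLa cells seeded overnight, then treated with serially diluted compounds in 2% FBS EMEM, uninfected, in parallel with the OC43 antiviral plates. Incubated 6 days at 33 °C; viability read by CellTiter-Glo luminescence.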

[7] = biological target: HRV3C (Human rhinovirus 14, UniProt P03303); test: HRV3C protease assay (duplex, SAMDI-MS); assay type: biochemical, HRV; conditions: 30 mins preincubation
Summary of the method: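 Duplex format with 3CLpro; 30 min enzyme–compound preincubation, 30 min reaction with two peptide substrates, ambient temp. Stop: 0.5% formic acid, neutralized with 1% NaHCO3 (finals). Readout SAMDI-MS, product AUC over internal standard AUC; four-parameter IC50.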

[8] = in vitro; conditions: human
[9] = biological target: 3CLpro (Severe acute respiratory syndrome coronavirus 2, UniProt P0DTD1); test: SARS-CoV-2 3CLpro protease assay (duplex, SAMDI-MS); assay type: biochemical; set-up: For the duplex assay, 3CLpro and HRV3C was added; conditions: 30 mins preincubation, class symbols
[10] = 3CLpro, read-out: SARS-Cov-2 IC50
[11] = HRV3C, class symbols, read-out: HRV IC50

| Structure (SMILES) | CC50 ([1]; numeric bounds) [µM] | EC50 [2] [µM] | EC50 ([3]; class symbols) [µM] | IC50 [4] [µM] | EC50 ([5]; class symbols) [µM] | CC50 at 6 days [6] [µM] | IC50 ([7]; HRV IC50, HRV3C, bound) [µM] | CC50 [8] [µM] | IC50 [9, 10] [µM] | CC50 ([1]; class symbols) [µM] | EC50 ([3]; numeric bounds) [µM] | EC50 ([5]; bound) [µM] | IC50 [7, 11] [µM] | IC50 ([7]; HRV IC50, HRV3C, class symbols) [µM] | IC50 ([9]; SARS-Cov-2 IC50, 3CLpro) [µM] | IC50 ([7]; HRV3C, bound, read-out: HRV IC50) [µM] |
| --- | --- | --- | --- | --- | --- | --- | --- | --- | --- | --- | --- | --- | --- | --- | --- | --- |
| COc1nccc2[nH]c(C(=O)N3C[C@@H]4CCC[C@@H]4[C@H]3C(=O)N[C@@H](C[C@@H]3CCNC3=O)C(=O)CO)cc12 [Compound 93, (1S,3aR,6aS)—N-[(2S)-4-hydroxy-3-oxo-1-[(3S)-2-oxopyrrolidin-3-yl]butan-2-yl]-2-{4-methoxy-1H-pyrrolo[3,2-c]pyridine-2-carbonyl}-hexahydro-1H-cyclopenta[c]pyrrole-1-carboxamide] | > 50 | 10 to 100 | 10 to 100 | ≥ 10 | 1 to 10 | > 10 | > 10 | > 100 | < 0.02 | – | – | – | – | – | – | – |
| C=CC12CN(C(=O)c3cc4c(OC)cccc4[nH]3)C(C(=O)N[C@@H](C[C@@H]3CCNC3=O)C(=O)C(=O)NC3CC3)(C1)C2 [Compound 98] | – | 10 to 100 | – | ≥ 10 | – | > 10 | – | > 50 | 0.2 to 2 | > 10 | > 50 | > 10 | 0.02 to 0.2 | – | – | – |
| COCCNC(=O)C(=O)[C@H](C[C@@H]1CCNC1=O)NC(=O)[C@@H]1[C@H]2CCC[C@H]2CN1C(=O)c1cc2c(OC)cccc2[nH]1 [Compound 100, (1S,3aR,6aS)-2-(4-methoxy-1H-indole-2-carbonyl)-N—((S)-4-((2-methoxyethyl)amino)-3,4-dioxo-1-((S)-2-oxopyrrolidin-3-yl)butan-2-yl)octahydrocyclopenta[c]pyrrole-1-carboxamide] | > 100 | 10 to 100 | 10 to 100 | ≥ 10 | 1 to 10 | > 10 | – | > 50 | – | – | – | – | – | 0.2 to 2 | 0.02 to 0.2 | – |
| COc1cccc2[nH]c(C(=O)N3C[C@@H]4CCC[C@@H]4[C@H]3C(=O)N[C@@H](C[C@@H]3CCNC3=O)C(=O)C(=O)NCCOCc3ccccc3)cc12 [Compound 101] | – | 1 to 10 | 1 to 10 | ≥ 10 | 0.1 to 1 | > 10 | – | > 50 | < 0.02 | > 10 | – | – | 0.2 to 2 | – | – | – |
| COc1cccc2[nH]c(C(=O)N3CCc4ccccc4[C@H]3C(=O)N[C@@H](C[C@@H]3CCNC3=O)C(=O)C(=O)NC3CC3)cc12 [Compound 102] | > 100 | 1 to 10 | 10 to 100 | ≥ 10 | 1 to 10 | > 10 | – | > 100 | 0.2 to 2 | – | – | – | – | – | – | > 10 |
| COc1cccc2[nH]c(C(=O)N3C[C@@H]4CCC[C@@H]4[C@H]3C(=O)N[C@@H](C[C@@H]3CCNC3=O)C(=O)C(=O)N[C@H]3CCOC3)cc12 [Compound 103] | > 100 | 10 to 100 | 10 to 100 | ≥ 10 | – | > 10 | – | > 100 | 0.02 to 0.2 | – | – | > 10 | 0.2 to 2 | – | – | – |
| COc1cccc2[nH]c(C(=O)N3C[C@@H]4CCC[C@@H]4[C@H]3C(=O)N[C@@H](C[C@@H]3CCNC3=O)C(=O)C(=O)NC3CCOCC3)cc12 [Compound 104] | > 100 | 10 to 100 | 10 to 100 | ≥ 10 | – | > 10 | – | > 100 | 0.2 to 2 | – | – | > 10 | 0.2 to 2 | – | – | – |
| COc1cccc2[nH]c(C(=O)N3C[C@@H]4CCC[C@@H]4[C@H]3C(=O)N[C@@H](C[C@@H]3CCNC3=O)C(=O)C(=O)N[C@@H]3CCOC3)cc12 [Compound 105] | > 100 | 10 to 100 | 10 to 100 | ≥ 10 | – | > 10 | – | > 100 | 0.02 to 0.2 | – | – | > 10 | 0.2 to 2 | – | – | – |
| COc1cccc2[nH]c(C(=O)N3CCc4ccccc4[C@H]3C(=O)N[C@@H](C[C@@H]3CCNC3=O)C(=O)CO)cc12 [Compound 106] | > 50 | 10 to 100 | 10 to 100 | ≥ 10 | 1 to 10 | > 10 | – | > 10 | 0.2 to 2 | – | – | – | 2 to 20 | – | – | – |
